{
  "source": "patent US10023615B2",
  "about": "“Efficient transport into white blood cells” (priority 2008, dated 2018)",
  "key": {"liver and lymph nodes": {"tested_on": "liver and lymph nodes", "experiment": "FITC-XG-102 and FITC-D-TAT localization in liver and lymph nodes", "assay_type": "in vivo, Sprague Dawley rat", "conditions": "1 mg/kg i.v., 6 h post-injection", "source_text": "FIG. 22A and FIG. 22B: 22A: FITC-XG-102 (SEQ ID NO: 233) localization in the liver. Three cellular fields of FITC-XG-102-labelled cells isolated from liver. From left to right, FITC-labelled XG-102, corresponding DAPI nuclear stain and merge of both images. […] Typicall Kupfer cell shape and nucleus can be differentiated from hepatocytes by their shape. Small and triangle in Kupfer cells in contrast to big exagonal, well organized hepatocytes. Obj 63; bar, 20 μm. 22B: FITC-D-TAT (SEQ ID NO: 4) localization in the liver. Two cellular fields of FITC-D-TAT-labelled cells isolated from liver. From left to right, FITC-labelled XG-102, corresponding DAPI nuclear stain and merge of both images. […] Typicall Kupfer cell shape and nucleus can be differentiated from hepatocytes by their shape. Small and triangle in Kupfer cells in contrast to big exagonal, well organized hepatocytes. Obj 63; bar, 20 μm.\n(§1) FIG. 23A and FIG. 23B: 23A: FITC-XG-102 (SEQ ID NO: 233) localization in lymph nodes. Cellular field of FITC-XG-102-labelled cells isolated from lymph nodes. Upper panels from left to right: the composite image is organized with one cellular field stained with FITC-XG-102 (left), Dapi for nuclear stain (middle) and the corresponding merged image (right). In the lower panels, a zoomed cell cluster of each image is illustrated. […] The absence of FITC staining in the lymphoid follicles allows distinguishing from the medullary corde and cortex area. Medullary zone seems to have incorporated the FITC-XG-102, composed in majority by macrophages. Obj 10; bar, 50 μm.\nas §1, with “23B:” for “FIG. 23A and FIG. 23B:”, “FITC-D-TAT” for “23A: FITC-XG-102”, “4)” for “233)”, “FITC-D-TAT-labelled” for “FITC-XG-102-labelled”, “FITC-D-TAT” for “FITC-XG-102”, “FITC-D-TAT,” for “FITC-XG-102,”\nFemale Sprague Dawley rat was injected i.v. in the tail with either 1 mg/kg of FITC-XG102 (SEQ ID NO:233) or 1 mg/kg FITC-D-TAT (SEQ ID NO:4). Rats were sacrified 6 h post-injection using a lethal dose of sodium pentobarbital (150 mg/kg i.p.). For histological analysis and during narcosis, rats were perfused through the heart with 4% paraformaldehyde (PFA) in PBS. Organs (liver and lymph nodes) were cryoprotected in sucrose (30% in PBS), frozen using liquid isopentane and kept for further cryostat sectioning. Sections of 14 μm were incubated for 5 min in PBS before Hoechst staining for 2 min at RT (1 μg/ml). […]"}, "[1]": {"tested_on": "Kupffer cells (CD-14 positive cells) of the liver", "experiment": "Liver cell localization of FITC-D-TAT after i.v. injection", "assay_type": "in vivo, mouse", "conditions": "0.1 mg/kg i.v.", "method": "FIG. 5: (A): Primary cultured macrophages were incubated with XG-102 (SEQ ID NO: 233) and extensively washed. […] (B): Mice were injected i.v. with 0.1 mg/kg FITC-D-TAT (SEQ ID NO: 4 plus FITC) and were sacrificed 24 hours later with PAF perfusion through the heart. Slices were obtained after cryoprotection using cryostat.\nMice were injected i.v. with 0.1 mg/kg of FITC-D-TAT (SEQ ID NO: 4) and were sacrificed by perfusion 24 h later. Liver was removed, cryoprotected and cut into slices with a cryostat. D-TAT was directly visualized via FITC fluorescence and cell nuclei were labeled with Hoechst dye. Hepatocytes are big cells (89% of liver cells) that display a large nucleus, whereas Kupffer cells (resident macrophages of the liver) represent approximately 10% of the cells and are small and thin, elongated cells with small nucleus."}, "TC-3 cells": {"tested_on": "TC-3 cells", "experiment": "Inhibition of IL-1 induced pancreatic beta-cell death", "assay_type": "cell-based", "conditions": "1 μM single addition, IL-1 every two days, 15 days", "method": "Inhibition of IL-1 induced pancreatic beta-cell death by the D-TAT-IB1(s) peptide was analyzed. TC-3 cells were incubated for 30 minutes with one single addition of the indicated peptides (1, μM), then IL-1 (10 ng/ml) was added.\nApoptotic cells were then counted after two days of incubation with IL-1 by use of Propidium Iodide and Hoechst 33342 nuclear staining. A minimum of 1,000 cells were counted for each experiment.\nLong term inhibition of IL-1P induced cell-death by the D-TAT-IB1 peptide was also analyzed. TC-3 cells were incubated for 30 minutes with one single addition of the indicated peptides (1 μM), then IL-1 (10 ng/ml) was added, followed by addition of the cytokine every two days. Apoptotic cells were then counted after 15 days of incubation with IL-1 by use of propidium iodide and Hoechst 33342 nuclear staining. […] A minimum of 1.000 cells were counted for each experiment."}, "Monocytes (CD14)": {"tested_on": "Monocytes (CD14)", "experiment": "Flow cytometry of FITC-transporter content in primary human white blood cells: monocytes", "assay_type": "cell-based", "conditions": "1 uM, 30 min", "source_text": "(§2) Primary human white blood cells (WBC) were obtained from whole blood after red blood cell lysis. […] Cells containing D-TAT-FITC and r3-L-TAT-FITC were finally analysed by flow cytometry to measure their respective transporter content."}, "[2]": {"tested_on": "dissociated cortical primary neurons", "experiment": "Confocal microscopy of FITC-labeled TAT derivative transporters in cortical primary neurons", "assay_type": "cell-based, rat", "conditions": "500 nM, 24 hours", "method": "8.4 Internalization Experiments and Analysis • The time dependant internalization (uptake) of FITC-labeled TAT derived transporter constructs into cells of the HL-60 cell line was carried out with materials and methods as described above. • Briefly, HL-60 cells were incubated 30 min, 1, 6 or 24 hours with 10 μM of the TAT-derivative transporters. The cells were then washed twice with an acidic buffer (0.2 M Glycin, 0.15 M NaCl, pH 3.0) and twice with PBS. Cells were broken by the addition of RIPA lysis buffer. The relative amount of internalized peptide was then determined by reading the fluorescence intensity (Fusion Alpha plate reader; PerkinElmer) of each extract followed by background substraction and protein content normalization. […] The dissociated cortical primary neurons from P2 Sprague Dawley rats were cultured 12 days in neurobasal medium before exposure 24 hours to 500 nM of the FITC-labeled • TAT derivative transporters. The cells were washed five times with PBS on ice and then mounted in fluorsave mounting medium without prior fixation. Acquisitions were performed on LSM510 metaconfocal microscope (Zeiss). Images were processed with LSM510 software and mounted using Adobe photoshop. Visualization by confocal microscopy of labeling with 500 nM FITC-transporters (A: green). Nuclei were stained by Hoechst (B: blue)."}, "[3]": {"tested_on": "HL-60 cell line (Leukemia)", "experiment": "Time dependant internalization of FITC-labeled TAT derived transporter constructs into HL-60 cells", "assay_type": "cell-based", "conditions": "10 μM; 30 min, 1, 6 or 24 hours", "method": "FIG. 3: depicts the results of the time dependant internalization (uptake) of FITC-labeled TAT derived transporter constructs into cells of the HL-60 cell line. […] HL-60 cells were incubated 30 min, 1, 6 or 24 hours with […] of the TAT-derivative transporters. The cells were then washed twice with an acidic buffer (0.2 M Glycin, 0.15 M NaCl, pH 3.0) and twice with PBS. Cells were broken by the addition of RIPA lysis buffer. The relative amount of internalized peptide was then determined by reading the fluorescence intensity (Fusion Alpha plate reader; PerkinElmer) of each extract followed by background substraction and protein content normalization. […]"}, "Lymphocytes B (CD19)": {"tested_on": "Lymphocytes B (CD19)", "experiment": "Flow cytometry of FITC-transporter content in primary human white blood cells: lymphocytes B", "assay_type": "cell-based", "conditions": "1 uM, 30 min", "source_text": "as §2"}, "U937 cells": {"tested_on": "U937 cells", "experiment": "Intracellular concentration of transporter constructs subsequent to uptake into U937 cells", "assay_type": "cell-based", "conditions": "U937 cells, 10 μM construct", "method": "9. Determination of Intracellular Concentration of Specific Transporter Constructs Subsequent to Uptake (Internalization) of these Peptides into U937 Cells • According to a further experiment, the concentration of specific transporter constructs subsequent to uptake (internalization) of these peptides into U937 cells were determined."}, "Neutrophils (CD15)": {"tested_on": "Neutrophils (CD15)", "experiment": "Flow cytometry of FITC-transporter content in primary human white blood cells: neutrophils", "assay_type": "cell-based", "conditions": "1 uM, 30 min", "source_text": "as §2"}, "Lymphocytes T (CD3)": {"tested_on": "Lymphocytes T (CD3)", "experiment": "Flow cytometry of FITC-transporter content in primary human white blood cells: lymphocytes T", "assay_type": "cell-based", "conditions": "1 uM, 30 min", "source_text": "as §2"}, "U937 lymphoma cells": {"tested_on": "U937 lymphoma cells", "experiment": "Uptake (internalization) of FITC-labeled TAT derived transporter constructs in U937 cells, fluorescence plate reader", "assay_type": "cell-based", "conditions": "10 μM, U937, Lymphoma, 24 h", "procedure": "Cells were plated into poly-DL-lysine coated dishes at a concentration of 1×10^6 cells/ml. Plates were then incubated for 24 h at 37° C., 5% CO2, and 100% relative humidity prior to the addition of a known concentration of peptide. After peptide addition, the cells were incubated 30 min, 1, 6 or 24 h at 37° C., 5% CO2, and 100% relative humidity. Cells were then washed twice with an acidic buffer (Glycin 0.2 M, NaCl 0.15 M, pH 3.0) in order to remove the cell-surface adsorbed peptide (see Kameyama et al., (2007), Biopolymers, 88, 98-107). […] The cell wash using an acidic buffer was thus employed to remove the cell-surface adsorbed peptides. […] Cells were broken by the addition of the RIPA lysis buffer. The relative amount of internalized peptide was then determined by fluorescence after background substraction and protein content normalization. • The steps are thus: 1. […] Analysis of peptide internalization with a fluorescence plate reader • f) Cell Culture and Peptide Treatment • (1) The 6 well culture plates are coated with 3 ml of Poly-D-Lys (Sigma P9011; 25 μg/ml in PBS), the 24 well plates with 600 μl and the 96 well plates with 125 μl and incubated for 4 h at 37° C., CO2 5% and 100% relative humidity. • (2) After 4 hours the dishes were washed twice with 3.5 ml PBS, 700 μl or 150 μl PBS for the 6, 24 or 96 well plates, respectively. • (3) The cells were plated into the dishes in 2.4 ml medium (RPMI) at plating densities of 1′000′000 cells/ml for suspension cells. After inoculation, the plates were incubated at 37° C., 5% CO2 and 100% relative humidity for 24 hours prior to the addition of the peptide. Adherent cells should be at a density of 90-95% the day of treatment and were plated in DMEM :\n• (4) The cells were treated with the desired concentration of FITC labeled peptide (stock solution at a concentration of 10 mM in H2O). • (5) Following peptide addition, the cells were incubated 0 to 24 hours (e.g. 30 min, 1, 6 or 24 hours) at 37° C., CO2 5% and 100% relative humidity. • Acidic Wash and Cellular Extracts: • (6) The extracts were cooled on ice. • Suspension cells (or cells, which don attach well to the dish): • Transfer the cells in ? […] To recover the maximum of cells, wash the dish with 1 ml of PBS. • Harvest the cells 2 min at 2400 rpm max. • Suspend the cells in 1 ml cold PBS. • Transfer the cells into a coated “Eppendorf tube” (coated with 1 ml of poly D-Lys for 4 hours and washed twice with 1 ml PBS). • Wash three times with 1 ml of cold acidic wash buffer and centrifuge 2 min at 2400 rpm max. Beware of the spreading of the cells in the “eppendorf”. • Wash twice with 1 ml cold PBS to neutralize. • Add 50 μl of lysis RIPA Buffer. • Incubate 30 min-1 h on ice with agitation. • Adherent Cells: • Wash three times with 3 ml, 1 ml or 200 μl (for 6, 24 or 96 well plates, respectively) of cold acidic wash buffer. Beware of the cells who detach from the dish. • Wash twice with 1 ml cold PBS (for 6, 24 or 96 well plates, respectively) to neutralize. • Add 50 μl of lysis RIPA buffer. • Incubate 30 min-1 h on ice with agitation. • Scrap the cells with a cold scrapper. The 24 and 96 well plates were directly centrifuged at 4000 rpm at 4° for 15 min to remove the cellular debris. Then the supernatants (100 or 50 ml respectively for the 24 or 96 well plates) were directly transferred in a dark 96 well plated."}, "[4]": {"tested_on": "HepG2 hepatocarcinoma, HCT-116 tumoral colon", "experiment": "Uptake of FITC-labeled TAT derived transporter constructs in HepG2 and HCT-116", "assay_type": "cell-based, human", "conditions": "10 μM, 24 h"}},
  "note": "Square brackets hold non-standard residues; d marks the D form. Ends that are not written are not given here.",
  "data": [
    {"molecule": "N=C(N)NCCC[C@@H](NC(=O)[C@@H](CCCCN)NC(=O)[C@@H](CCCCN)NC(=O)[C@@H](CCCNC(=N)N)NC(=O)[C@@H](CCCNC(=N)N)NC(=O)[C@@H](CCC(N)=O)NC(=O)[C@@H](CCCNC(=N)N)NC(=O)[C@@H](CCCNC(=N)N)NC(=O)[C@@H](CCCNC(=N)N)NC(=O)CCNC(=S)Nc1ccc2c(c1)C(=O)OC21c2ccc(O)cc2Oc2cc(O)ccc21)C(N)=O", "note": "[FITC-D-TAT, FITC-βA-rrrqrrkkr]", "values": [
      {"measurement": "localization in lymph nodes", "setting": "liver and lymph nodes", "result": "decorates subcapsular sinus macrophages and constitutive migrating alveolar macrophages"},
      {"measurement": "localization in the liver", "setting": "liver and lymph nodes", "result": "efficiently decorates Kupfer cells in contrast to hepatocytes which only show a background staining level"},
      {"measurement": "cell type of accumulation in liver", "setting": "[1]; 24 h", "result": "accumulates predominantly in Kupffer cells"},
      {"measurement": "colocalization with CD-14 positive cells in liver", "setting": "[1]; 24 hours", "result": "colocalization between FITC-D-TAT labelled-cells and CD-14 positive cells"}
    ]},
    {"molecule": "L-TAT-IB1(s): SEQ ID NO: 234: L-IB1(s) linked to 10 amino acid L-TAT carrier via two proline residues (GRKKRRQRRRPPRPKRPTTLNLFPQVPRSQD; Description of sequence L-TAT-IB1 (s))", "values": [
      {"measurement": "long term protection against IL-1 induced cell-death", "setting": "TC-3 cells", "result": "but not L-TAT-IB1(s), was able to confer long term (15 day) protection"}
    ]},
    {"molecule": "rKKRrQRRr ([dR]KKR[dR]QRR[dR]) [r3-L-TAT]", "values": [
      {"measurement": "binding to cell population", "setting": "Monocytes (CD14)", "result": "binds to monocytes, neutrophils and lymphocyte T cells"},
      {"measurement": "internalization seen by confocal microscopy", "setting": "[2]", "result": "internalized into the cytoplasm of the non stressed neurons"},
      {"measurement": "time dependant internalization (uptake)", "setting": "[3]", "result": "as effective as the D-TAT transporter construct"},
      {"measurement": "binding to cell population", "setting": "Lymphocytes B (CD19)", "result": "less efficiently to lymphocyte B cells"},
      {"measurement": "intracellular concentration of transporter construct subsequent to uptake", "setting": "U937 cells; 2 h", "result": 2.34},
      {"measurement": "intracellular concentration of transporter construct subsequent to uptake", "setting": "U937 cells; 4 h", "result": 3.16},
      {"measurement": "intracellular concentration of transporter construct subsequent to uptake", "setting": "U937 cells; 6 h", "result": 3.56},
      {"measurement": "intracellular concentration of transporter construct subsequent to uptake", "setting": "U937 cells; 24 h", "result": 11.2},
      {"measurement": "binding to cell population", "setting": "Neutrophils (CD15)", "result": "binds to monocytes, neutrophils and lymphocyte T cells"},
      {"measurement": "binding to cell population", "setting": "Lymphocytes T (CD3)", "result": "binds to monocytes, neutrophils and lymphocyte T cells"},
      {"measurement": "uptake (internalization)", "setting": "U937 lymphoma cells", "result": "most efficient"}
    ]},
    {"molecule": "rrrRRRrrr [r6R3]", "values": [
      {"measurement": "uptake (internalization)", "setting": "[4]", "result": "most efficient"}
    ]}
  ]
}
